Consider three compounds from EP0617001B1, “Phenoxyphenylacetic acid derivatives” (Merck & Co., Inc., priority 1993, dated 1994).

The test system of test [1] is Anesthetized Male Dog. As to the kind of experiment: ET-1 induced changes in diastolic blood pressure (DBP) and intra-urethral pressure (IUP) in the anesthetized male dog. The format is in vivo, mongrel dog. The conditions noted are these: for % INHIBITION of ET-1 induced change in DBP, DEPRESSOR / % INHIBITION of ET-1 induced change in DBP, PRESSOR / % INHIBITION of ET-1 induced change in IUP, PRESSOR: 30 mg/kg intra-venous. As to the method: Methodology for determining whether an ET-1 selective antagonist could inhibit the ET-1 mediated prostatic urethral contractions in a mongrel dog model:
(§1) On separate days, two fasted male mongrel dogs (HRP, Inc.) weighing 11.0 and 12.4 kg, were anesthetized with Sodium Pentobarbital (Steris Laboratories, Inc.) at 35 mg/kg (i.v.) to effect, followed by 4 mg/kg/hr (i.v.) infusion. A cuffed endotracheal tube was inserted and each animal was ventilated with room air using a positive displacement large animal ventilator (Harvard Apparatus) at a rate of 18 breaths/minute and an average tidal volume of 18 ml/kg body weight. Body temperature was maintained with a heating pad and heat lamp using a temperature controller (YSI) and esophageal probe. Two catheters (PE 260) were placed in the aorta via the femoral arteries (one in each artery) for administration of endothelin or phenylephrine and for continuous direct monitoring of blood pressure and heart rate using a Statham blood pressure transducer (Spectramed) and a computer system (Modular Instruments, Inc.). Two other catheters (PE 260) were placed in the vena cava via the femoral veins (one catheter in each vein) for administration of pentobarbital and N-(4-iso-propylbenzenesulfonyl)-α-(4-carboxy-2-n-propylphenoxy)-3,4-methylenedioxyphenylacetamide dipotassium salt [Example 42]. A supra-pubic incision approximately one-half inch lateral to the penis was made to expose the ureters, urinary bladder, prostate, and urethra. The dome of the bladder was retracted to facilitate dissection of the ureters. The ureters were cannulated with PE 90 and tied off to the bladder. Umbilical tape was passed beneath the urethra at the bladder neck and another piece of tape was placed approximately 1-2 cm. distal to the prostate. The bladder dome was incised and a Micro-tip® catheter transducer (Millar Instruments, Inc.) was advanced into the urethra. The neck of the bladder was ligated with the umbilical tape to hold the transducer. The bladder incision was sutured wit 3-0 silk (purse string suture). The transducer was withdrawn until it was positioned in the prostatic urethra. The position of the Micro-tip® catheter was verified by gently squeezing the prostate and noting the large change in urethral pressure prior to ligating the distal urethra.
Phenylephrine (PB) (10 µg/kg, intra-arterial) was administered and pressor effects on diastolic blood pressure (DBP) and intra-urethral pressure (IUP) were noted. When blood pressure returned to baseline, endothelin-1 (ET-1) (1 nmole/kg, intra-arterial) was administered. Changes in DBP and IUP were monitored for one hour and an ET-1 selective endothelin antagonist, such as the compound of Example 42, N-(4-iso-propylbenzene-sulfonyl)-α-(4-carboxy-2-n-propylphenoxy)-3,4-methylenedioxyphenyl-acetamide dipotassium salt (30 mg/kg, intra-venous) was administered. Ten to fifteen minutes later when blood pressure had stabilized, ET-1 was administered again, and inhibition of ET-1 induced effects were noted. PE was administered at the end of the experiment to verify specificity for ET-1 blockade. The dogs were euthanized with an overdose of pentobarbital followed by saturated KCl.
(§2) All drugs were dissolved in isotonic saline solution.

In test [2] the test system is Anesthetized Male Dog. Put plainly: Phenylephrine (PE)-induced changes in DBP and IUP in the anesthetized male dog (specificity for ET-1 blockade). It counts as in vivo, mongrel dog. As to the method: as §1, with “Two other catheters (PE 260) were placed in the vena cava via the femoral veins (one catheter in each vein) for administration of pentobarbital and N-(4-iso-propylbenzenesulfonyl)-α-(4-carboxy-2-n-propylphenoxy)-3,4-methylenedioxyphenylacetamide dipotassium salt [Example 42].” left out
Phenylephrine (PB) (10 µg/kg, intra-arterial) was administered and pressor effects on diastolic blood pressure (DBP) and intra-urethral pressure (IUP) were noted. When blood pressure returned to baseline, endothelin-1 (ET-1) (1 nmole/kg, intra-arterial) was administered. […] Ten to fifteen minutes later when blood pressure had stabilized, ET-1 was administered again, and inhibition of ET-1 induced effects were noted. PE was administered at the end of the experiment to verify specificity for ET-1 blockade. The dogs were euthanized with an overdose of pentobarbital followed by saturated KCl.
as §2

A further test deals with rat prostate. Put plainly: In situ rat prostate: ET-1 induced contraction. The format is in vivo, Sprague-Dawley rats. The conditions noted are these: antagonist injected IA. As to the method:
Male Sprague-Dawley rats (Taconic Farms) weighing 300-400 grams were anesthetized with urethane (1.75 g/kg, ip), a tracheal cannula was inserted, and the femoral artery was cannulated. Core body temperature was maintained at 37 + 0.5 °C. A 4-5 cm midline abdominal incision was made to expose the bladder and prostate. The prostate was separated from the bladder and surrounding capsule by blunt dissection with a forcep. A length of surgical silk was gently secured around the anterior tips of the prostate lobes. A second length of surgical silk attached to an atraumatic needle was passed through and tied to the base of the prostate approximately 10-12 mm posterior to the first tie. The posterior ligature was secured to an anchor post whereas the anterior ligature was connected to a Grass FT03 transducer (Grass Instruments, Quincy, MA) and maintained at a tension of 1 g. Signals from the transducer were amplified and recorded on a polygraph (Hewlett-Packard 8805B amplifiers and 7758A recorder, Palo Alto, CA). After equilibrating for approximately 15 min, the rats were administered pretreatment drugs (atropine 1 mg/kg, (+) propranolol 1 mg/kg) 10 min apart through the intra-arterial (IA) cannula. […] The response of the prostate to FT-1 was quantified by measuring the change (Δ) from baseline tension to the peak of the response during the 5-minute period after the third FT-1 injection.

[3] abbreviates: ET-1 challenge after antagonist 30 mg/kg intra-venous, MEAN, n=2 dogs.
The mark [4] stands for this setting: ET-1 challenge after antagonist 30 mg/kg intra-venous, dog HG FMHK.
[5] abbreviates: ET-1 challenge after antagonist 30 mg/kg intra-venous, dog HG FMJC.
The mark [6] stands for this setting: 30 mg/kg intra-venous, dog HG FMJC.
Setting [7] is: Phenylephrine alone, 10 µg/kg intra-arterial, dog HG FMJC.
Setting [8] is: ET-1 (i.a.) alone, 1 nmole/kg, MEAN, n=2 dogs.
[9] abbreviates: ET-1 (i.a.) alone, 1 nmole/kg, dog HG FMHK.
The mark [10] stands for this setting: ET-1 (i.a.) alone, 1 nmole/kg, dog HG FMJC.

Counter-ions that a name gives are not always drawn.

As to `CCCc1cc(C(=O)O)ccc1OC(C(=O)NS(=O)(=O)c1ccc(C(C)C)cc1)c1ccc2c(c1)OCO2` (stereo not drawn) [Example 42, N-(4-iso-propylbenzenesulfonyl)-α-(4-carboxy-2-n-propylphenoxy)-3,4-methylenedioxyphenylacetamide dipotassium salt], in the test with Anesthetized Male Dog [1] (MEAN, n=2 dogs), the “% INHIBITION of ET-1 induced change in DBP, DEPRESSOR” value is given as 69%; the “% INHIBITION of ET-1 induced change in DBP, PRESSOR” value is 76%; the “% INHIBITION of ET-1 induced change in IUP, PRESSOR” value came to 93%. Moreover, in the test with Anesthetized Male Dog [1] (dog HG FMHK), the “% INHIBITION of ET-1 induced change in DBP, DEPRESSOR” value turned out to be 67%; the “% INHIBITION of ET-1 induced change in DBP, PRESSOR” value is recorded as 94%; the “% INHIBITION of ET-1 induced change in IUP, PRESSOR” value turned out to be 91%. Also, in the test on Anesthetized Male Dog [1] (dog HG FMJC), the “% INHIBITION of ET-1 induced change in DBP, DEPRESSOR” value is recorded as 70%; the “% INHIBITION of ET-1 induced change in DBP, PRESSOR” value stood at 58%; the “% INHIBITION of ET-1 induced change in IUP, PRESSOR” value was determined as 94%. In addition, in the test with Anesthetized Male Dog [1] (setting [3]), the “CHANGE IN DBP (mmHg) DEPRESSOR” value is -4 mmHg, the “CHANGE IN DBP (mmHg) PRESSOR” value is given as 5 mmHg and the “CHANGE IN IUP (mmHg) PRESSOR” value is recorded as 1 mmHg. For the same compound, in the test on Anesthetized Male Dog [1] (setting [4]), the “CHANGE IN DBP (mmHg) DEPRESSOR” value is -5 mmHg, the “CHANGE IN DBP (mmHg) PRESSOR” value was 2 mmHg and the “CHANGE IN IUP (mmHg) PRESSOR” value is reported as 1 mmHg. Moreover, in the test on Anesthetized Male Dog [1] (setting [5]), the “CHANGE IN DBP (mmHg) DEPRESSOR” value is reported as -3 mmHg, the “CHANGE IN DBP (mmHg) PRESSOR” value came out at 8 mmHg and the “CHANGE IN IUP (mmHg) PRESSOR” value was 1 mmHg. In addition, in the test on Anesthetized Male Dog [1] (anesthetized dogs), the “hemodynamic and prostatic urethral responses to ET-1” value is given as “specifically inhibited”. For the same compound, in the test with Anesthetized Male Dog [2] (setting [6]), the “% Inhibition of Control, PE-induced INCREASE IN DBP” value was 35% and the “% Inhibition of Control, PE-induced INCREASE IN IUP” value was determined as 13%. Further, the “Intra-arterial PE-induced increases in DBP and IUP after administration” value with Anesthetized Male Dog [2] (one dog studied) was “did not change significantly”. Moreover, the “inhibition of ET-1 to contract the prostate” value with rat prostate is “specific inhibition”.

Take `CNC[C@H](O)c1cccc(O)c1` [Phenylephrine, reference compound]: in the test with Anesthetized Male Dog [2] (setting [7]), the “INCREASE IN DBP (mmHg)” value amounted to 17 mmHg and the “INCREASE IN IUP (mmHg)” value is recorded as 31 mmHg.

Turning to Endothelin-1 [ET-1], in the test with Anesthetized Male Dog [1] (setting [8]), the “CHANGE IN DBP (mmHg) DEPRESSOR” value is recorded as -13 mmHg, the “CHANGE IN DBP (mmHg) PRESSOR” value amounted to 26 mmHg and the “CHANGE IN IUP (mmHg) PRESSOR” value stood at 15 mmHg. In addition, in the test with Anesthetized Male Dog [1] (setting [9]), the “CHANGE IN DBP (mmHg) DEPRESSOR” value is listed as -15 mmHg, the “CHANGE IN DBP (mmHg) PRESSOR” value is on record as 33 mmHg and the “CHANGE IN IUP (mmHg) PRESSOR” value was found to be 11 mmHg. Besides, in the test on Anesthetized Male Dog [1] (setting [10]), the “CHANGE IN DBP (mmHg) DEPRESSOR” value is listed as -10 mmHg, the “CHANGE IN DBP (mmHg) PRESSOR” value came out at 19 mmHg and the “CHANGE IN IUP (mmHg) PRESSOR” value came to 18 mmHg. In addition, the “decrease in DBP” value with Anesthetized Male Dog [1] (ET-1 alone, 1 nmole/kg intra-arterial, average of both dogs) amounted to 13 mmHg.
